Source: ChEMBL document CHEMBL3045592, “Studies of O,O-dimethyl α-(2,4-dichlorophenoxyacetoxy)ethylphosphonate (HW02) as a new herbicide. 1. Synthesis and herbicidal activity of HW02 and analogues as novel inhibitors of pyruvate dehydrogenase complex” (J Agric Food Chem, 2011)

Key:
Cucumis sativus [1] = assay: Herbicidal activity against Cucumis sativus Jin 4 (cucumber) assessed as inhibition of stem growth after 3 days; format: functional, organism-based; conditions: Jin 4, 72 h
Medicago sativa [2] = assay: Post-emergence herbicidal activity against Medicago sativa (alfalfa) assessed as growth inhibition at 1500 ai g/ha after 20 days by green house test; format: functional
Amaranthus retroflexus [3] = assay: Post-emergence herbicidal activity against Amaranthus retroflexus assessed as growth inhibition at 1500 ai g/ha after 20 days by green house test; format: functional
[4] = tested on: Brassica rapa subsp. oleifera; assay: Post-emergence herbicidal activity against Brassica rapa subsp. oleifera Si Yue Man assessed as growth inhibition at 1500 ai g/ha after 20 days by green house test; format: functional
Digitaria sanguinalis [5] = assay: Post-emergence herbicidal activity against Digitaria sanguinalis (hairy crabgrass) assessed as growth inhibition at 1500 ai g/ha after 20 days by green house test; format: functional
Echinochloa crus-galli [6] = assay: Post-emergence herbicidal activity against Echinochloa crus-galli (barnyard grass) assessed as growth inhibition at 1500 ai g/ha after 20 days by green house test; format: functional
Medicago sativa [7] = assay: Pre-emergence herbicidal activity against Medicago sativa (alfalfa) assessed as growth inhibition at 1500 ai g/ha after 20 days by green house test; format: functional
Amaranthus retroflexus [8] = assay: Pre-emergence herbicidal activity against Amaranthus retroflexus assessed as growth inhibition at 1500 ai g/ha after 20 days by green house test; format: functional
[9] = tested on: Brassica rapa subsp. oleifera; assay: Pre-emergence herbicidal activity against Brassica rapa subsp. oleifera Si Yue Man assessed as growth inhibition at 1500 ai g/ha after 20 days by green house test; format: functional
Digitaria sanguinalis [10] = assay: Pre-emergence herbicidal activity against Digitaria sanguinalis (hairy crabgrass) assessed as growth inhibition at 1500 ai g/ha after 20 days by green house test; format: functional
Echinochloa crus-galli [11] = assay: Pre-emergence herbicidal activity against Echinochloa crus-galli (barnyard grass) assessed as growth inhibition at 1500 ai g/ha after 20 days by green house test; format: functional
Cucumis sativus [12] = assay: Herbicidal activity against Cucumis sativus Jin 4 (cucumber) assessed as inhibition of root growth after 3 days; format: functional, organism-based; conditions: Jin 4, 72 h

Structure (SMILES)	IC50 (Cucumis sativus [1])	growth inhibition (GI) (Medicago sativa [2])	growth inhibition (GI) (Amaranthus retroflexus [3])	growth inhibition (GI) [4]	growth inhibition (GI) (Digitaria sanguinalis [5])	growth inhibition (GI) (Echinochloa crus-galli [6])	growth inhibition (GI) (Medicago sativa [7])	growth inhibition (GI) (Amaranthus retroflexus [8])	growth inhibition (GI) [9]	growth inhibition (GI) (Digitaria sanguinalis [10])	growth inhibition (GI) (Echinochloa crus-galli [11])	IC50 (Cucumis sativus [12])
COP(=O)(OC)C(OC(=O)COc1ccc(Cl)cc1Cl)c1cccc([N+](=O)[O-])c1 (centres undefined)	5.02 µM	90%	90%	90%	<=50%	<=50%	90%	90%	90%	<=50%	50%	0.0034 µM
CCOP(=O)(OCC)C(OC(=O)COc1ccc(Cl)cc1Cl)c1ccccc1Cl (centres undefined)	–	–	–	–	–	–	–	–	–	–	–	1.49 µM
CCCOP(=O)(OCCC)C(OC(=O)C(C)Oc1ccc(Cl)cc1Cl)c1ccccc1Cl (centres undefined)	164 µM	–	–	–	–	–	–	–	–	–	–	12.1 µM
CCCC(OC(=O)COc1ccc(Cl)cc1Cl)P(=O)(OC)OC (centres undefined)	9.34 µM	–	–	–	–	–	–	–	–	–	–	0.0075 µM
CCOP(=O)(OCC)C(CC)OC(=O)COc1ccc(Cl)cc1Cl (centres undefined)	25.7 µM	–	–	–	–	–	–	–	–	–	–	0.31 µM
CCOP(=O)(OCC)C(OC(=O)COc1ccc(Cl)cc1Cl)c1ccccc1 (centres undefined)	109 µM	–	–	–	–	–	–	–	–	–	–	0.0488 µM
CCC(OC(=O)COc1ccc(Cl)cc1Cl)P(=O)(OC)OC (centres undefined)	14 µM	90%	90%	90%	50%	50%	90%	90%	90%	75%	75%	0.327 µM
CCOP(=O)(OCC)C(C)OC(=O)C(C)Oc1ccc(Cl)cc1Cl (centres undefined)	–	–	–	–	–	–	–	–	–	–	–	1.08 µM
COP(=O)(OC)C(OC(=O)C(C)Oc1ccc(Cl)cc1Cl)c1ccccc1 (centres undefined)	30.1 µM	–	–	–	–	–	–	–	–	–	–	–
CCCOP(=O)(OCCC)C(OC(=O)C(C)Oc1ccc(Cl)cc1Cl)c1ccccc1 (centres undefined)	44.3 µM	–	–	–	–	–	–	–	–	–	–	4.52 µM
CCCC(OC(=O)C(C)Oc1ccc(Cl)cc1Cl)P(=O)(OC)OC (centres undefined)	13.7 µM	–	–	–	–	–	–	–	–	–	–	2.98 µM
CCCOP(=O)(OCCC)C(C)OC(=O)C(C)Oc1ccc(Cl)cc1Cl (centres undefined)	18 µM	–	–	–	–	–	–	–	–	–	–	2.44 µM
COP(=O)(OC)C(OC(=O)COc1ccc(F)cc1Cl)c1ccccc1 (centres undefined)	–	75%	90%	75%	50%	75%	90%	90%	90%	90%	90%	–
COP(=O)(OC)C(C)OC(=O)C(C)Oc1ccc(Cl)cc1Cl (centres undefined)	6.74 µM	–	–	–	–	–	–	–	–	–	–	1.42 µM
CCOP(=O)(COC(=O)COc1ccc(Cl)cc1Cl)OCC	13.4 µM	–	–	–	–	–	–	–	–	–	–	–
COP(=O)(OC)C(OC(=O)COc1cccc(C)c1)c1ccccc1 (centres undefined)	–	50%	50%	50%	<=50%	<=50%	75%	75%	75%	<=50%	<=50%	–
COP(=O)(OC)C(C)OC(=O)COc1cc(F)cc(F)c1 (centres undefined)	–	<=50%	<=50%	<=50%	<=50%	<=50%	<=50%	<=50%	<=50%	<=50%	<=50%	–
COP(=O)(OC)C(C)OC(=O)COc1cccc(F)c1 (centres undefined)	–	<=50%	<=50%	<=50%	<=50%	<=50%	<=50%	<=50%	<=50%	<=50%	<=50%	–
COP(=O)(OC)C(OC(=O)COc1ccccc1[N+](=O)[O-])c1ccccc1 (centres undefined)	–	<=50%	<=50%	<=50%	<=50%	<=50%	<=50%	<=50%	<=50%	<=50%	<=50%	–
COP(=O)(OC)C(OC(=O)COc1ccc(C(F)(F)F)cc1[N+](=O)[O-])c1cccc([N+](=O)[O-])c1 (centres undefined)	–	<=50%	<=50%	<=50%	<=50%	<=50%	<=50%	<=50%	<=50%	<=50%	<=50%	–
COP(=O)(OC)C(OC(=O)COc1ccc(Cl)cc1Cl)c1cccc(Br)c1 (centres undefined)	–	90%	90%	90%	<=50%	50%	90%	90%	90%	90%	50%	–
COP(=O)(OC)C(OC(=O)COc1ccccc1F)c1cccc([N+](=O)[O-])c1 (centres undefined)	–	<=50%	<=50%	<=50%	<=50%	90%	<=50%	<=50%	<=50%	<=50%	<=50%	–
COP(=O)(OC)C(OC(=O)COc1ccc(C(F)(F)F)cc1[N+](=O)[O-])c1ccccc1 (centres undefined)	–	<=50%	<=50%	<=50%	<=50%	<=50%	<=50%	<=50%	<=50%	<=50%	<=50%	–
COP(=O)(OC)C(C)OC(=O)COc1ccc(C)cc1 (centres undefined)	–	50%	50%	50%	<=50%	50%	75%	75%	75%	<=50%	50%	–
